What was measured:
Coagulation factor X [1] = target: T1, Coagulation factor X (Homo sapiens, UniProt P00742); assay: Inhibition of human F10a by fluorescence assay
Plasma = assay: Anticoagulant activity in human plasma assessed as drug level causing 1.5 times prolongation of prothrombin time; format: functional
Albumin = Albumin (Homo sapiens, UniProt P02768); assay: Binding affinity to human serum albumin; format: ADME; details: isolated protein
[2] = Oral bioavailability in Sprague-Dawley rat; format: ADME, organism-based; details: in vivo
[3] = Volume of distribution at steady state in Sprague-Dawley rat; format: ADME, organism-based; details: in vivo, read-out: Vdss
[4] = Half life in Sprague-Dawley rat; format: ADME, organism-based; details: in vivo
[5] = Plasma clearance in Sprague-Dawley rat; format: ADME, organism-based
Coagulation factor X [6] = target: T1, Coagulation factor X; assay: Inhibition of human F10a by chromogenic assay

T1 sequence (P00742 41-179 limits assumed): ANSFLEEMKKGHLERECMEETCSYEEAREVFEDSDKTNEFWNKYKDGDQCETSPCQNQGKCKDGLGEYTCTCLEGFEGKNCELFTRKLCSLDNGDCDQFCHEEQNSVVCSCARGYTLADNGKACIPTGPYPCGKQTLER
T1 sequence (P00742 235-488 limits assumed): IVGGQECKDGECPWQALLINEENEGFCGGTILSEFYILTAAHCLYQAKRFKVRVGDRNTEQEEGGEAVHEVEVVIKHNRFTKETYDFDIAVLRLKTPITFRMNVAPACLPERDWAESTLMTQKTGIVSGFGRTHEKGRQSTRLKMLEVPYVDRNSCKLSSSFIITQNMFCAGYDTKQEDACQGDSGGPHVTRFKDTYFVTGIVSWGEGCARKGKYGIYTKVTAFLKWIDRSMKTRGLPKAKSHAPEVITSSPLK
Sequence of Albumin (P02768 whole entry): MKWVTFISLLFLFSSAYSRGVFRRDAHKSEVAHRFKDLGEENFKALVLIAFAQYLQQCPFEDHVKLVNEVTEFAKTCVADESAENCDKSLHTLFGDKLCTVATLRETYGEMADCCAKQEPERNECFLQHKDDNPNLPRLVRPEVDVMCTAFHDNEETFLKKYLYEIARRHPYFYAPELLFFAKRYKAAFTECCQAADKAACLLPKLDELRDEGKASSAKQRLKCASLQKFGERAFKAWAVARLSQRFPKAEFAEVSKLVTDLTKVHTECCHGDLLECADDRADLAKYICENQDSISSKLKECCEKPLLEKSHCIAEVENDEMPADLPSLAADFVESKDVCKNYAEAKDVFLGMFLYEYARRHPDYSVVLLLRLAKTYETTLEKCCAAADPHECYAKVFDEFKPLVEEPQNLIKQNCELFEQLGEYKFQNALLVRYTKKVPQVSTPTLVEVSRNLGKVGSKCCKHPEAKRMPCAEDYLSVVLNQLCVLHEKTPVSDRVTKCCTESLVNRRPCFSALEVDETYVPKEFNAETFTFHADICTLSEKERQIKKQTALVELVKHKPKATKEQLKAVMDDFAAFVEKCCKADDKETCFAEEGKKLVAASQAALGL

Compound	Ki (Coagulation factor X [1])	Activity (Plasma)	further results
O=C1C(NS(=O)(=O)c2ccc3cc(Cl)ccc3c2)CCN1c1ccc(-c2ccoc2)cc1F (stereo not given)	74.6 nM	>100 µM	
CS(=O)(=O)c1ccccc1-c1ccc(N2CCC(NS(=O)(=O)/C=C/c3ccc(Cl)s3)C2=O)c(F)c1 (stereo not given)			Activity (Albumin): 97.6%
NS(=O)(=O)c1ccccc1-c1ccc(N2CCC(NS(=O)(=O)/C=C/c3ccc(Cl)s3)C2=O)nc1 (stereo not given)			Activity (Albumin): 98%
N#Cc1ncccc1-c1ccc(N2CCC(NS(=O)(=O)c3ccc4cc(Cl)ccc4c3)C2=O)c(F)c1 (stereo not given)	0.7 nM	64.3 µM	
O=C1C(NS(=O)(=O)c2ccc3cc(Cl)ccc3c2)CCN1c1ccc(-c2ccncc2)cc1F (stereo not given)	8.9 nM	92.9 µM	
CS(=O)(=O)c1ccccc1-c1ccc(N2CCC(NS(=O)(=O)c3cc4nc(Cl)ccc4s3)C2=O)c(F)c1 (stereo not given)	2 nM	> 100 µM	
CS(=O)(=O)c1ccccc1-c1ccc(N2CCC(NS(=O)(=O)/C=C/c3ccc(Cl)s3)C2=O)nc1 (stereo not given)			bioavailability [2]: 29%; Vd [3]: 0.7 L/kg; half-life [4]: 36 min; clearance [5]: 20 mL/min/kg; Activity (Albumin): 97.6%
CS(=O)(=O)Nc1ccccc1-c1ccc(N2CCC(NS(=O)(=O)/C=C/c3ccc(Cl)s3)C2=O)nc1 (stereo not given)		58.4 µM	Ki (Coagulation factor X [6]): 14 nM; Activity (Albumin): 98.2%
CN(C)S(=O)(=O)c1ccccc1-c1ccc(N2CCC(NS(=O)(=O)/C=C/c3ccc(Cl)s3)C2=O)nc1 (stereo not given)	0.4 nM	65.1 µM	
CN(C)C(=O)c1ccccc1-c1ccc(N2CCC(NS(=O)(=O)/C=C/c3ccc(Cl)s3)C2=O)nc1 (stereo not given)	11.8 nM	78.6 µM	
O=C1C(NS(=O)(=O)/C=C/c2ccc(Cl)s2)CCN1c1ccc(-c2ccccc2C(F)(F)F)cn1 (stereo not given)	6 nM	>100 µM	
CN(c1ccccc1-c1ccc(N2CCC(NS(=O)(=O)/C=C/c3ccc(Cl)s3)C2=O)nc1)S(C)(=O)=O (stereo not given)	9.1 nM	>100 µM	
CC(C)(C)c1ccccc1-c1ccc(N2CCC(NS(=O)(=O)/C=C/c3ccc(Cl)s3)C2=O)nc1 (stereo not given)			Ki (Coagulation factor X [6]): 2330 nM
O=C1C(NS(=O)(=O)c2ccc3cc(Cl)ccc3c2)CCN1c1ccc(-c2cccnc2)cc1F (stereo not given)	6.3 nM	>100 µM	
CS(=O)(=O)c1ccccc1-c1ccc(N2CCC(NS(=O)(=O)c3ccc4cc(Cl)ccc4c3)C2=O)c(F)c1 (stereo not given)			bioavailability [2]: 10%; Vd [3]: 1.1 L/kg; half-life [4]: 54 min; clearance [5]: 20 mL/min/kg; Activity (Albumin): 98.8%
O=C1C(NS(=O)(=O)c2ccc3cc(Cl)ccc3c2)CCN1c1ccc(-n2ccnc2)cc1F (stereo not given)	4.4 nM	>100 µM	
CS(=O)(=O)c1ccccc1-c1ccc(N2CCC(NS(=O)(=O)/C=C/c3ccc(Cl)cc3)C2=O)c(F)c1 (stereo not given)	< 0.4 nM	30 µM	bioavailability [2]: 41%; Vd [3]: 0.5 L/kg; half-life [4]: 48 min; clearance [5]: 9.2 mL/min/kg
N#Cc1ccccc1-c1ccc(N2CCC(NS(=O)(=O)/C=C/c3ccc(Cl)s3)C2=O)nc1 (stereo not given)	1.8 nM	73.7 µM	
CC(C)Oc1ccccc1-c1ccc(N2CCC(NS(=O)(=O)/C=C/c3ccc(Cl)s3)C2=O)nc1 (stereo not given)	180 nM	>100 µM	
CS(=O)(=O)c1ccccc1-c1ccc(N2CCC(NS(=O)(=O)c3cc4cc(Cl)ccc4o3)C2=O)c(F)c1 (stereo not given)	6.2 nM	>100 µM	
CNS(=O)(=O)c1ccccc1-c1ccc(N2CCC(NS(=O)(=O)/C=C/c3ccc(Cl)s3)C2=O)nc1 (stereo not given)	< 0.3 nM	25 µM	
Cn1ccnc1-c1ccc(N2CCC(NS(=O)(=O)c3ccc4cc(Cl)ccc4c3)C2=O)c(F)c1 (stereo not given)	1.1 nM	54.5 µM	
O=C1C(NS(=O)(=O)c2ccc3cc(Cl)ccc3c2)CCN1c1ccc(-n2cccn2)cc1F (stereo not given)	2.7 nM	>100 µM	
Cn1cnc(-c2ccc(N3CCC(NS(=O)(=O)c4ccc5cc(Cl)ccc5c4)C3=O)c(F)c2)c1 (stereo not given)	15.5 nM	>100 µM	
O=C1C(NS(=O)(=O)c2ccc3cc(Cl)ccc3c2)CCN1c1ccc(-c2ccccc2)cc1F (stereo not given)	215 nM	>100 µM	
CS(=O)(=O)c1ccccc1-c1ccc(N2CCC(NS(=O)(=O)c3cc4ccc(Cl)cc4o3)C2=O)c(F)c1 (stereo not given)	1.1 nM	>100 µM	Activity (Albumin): 99.6%
CS(=O)(=O)c1ccccc1-c1ccc(N2CCC(NS(=O)(=O)/C=C/c3cc4ccc(Cl)cc4s3)C2=O)c(F)c1 (stereo not given)	0.1 nM	28.7 µM	
O=C1C(NS(=O)(=O)c2ccc3cc(Cl)ccc3c2)CCN1c1ccc(-c2ccccc2)cn1 (stereo not given)	80 nM	>100 µM	
